Here are results for 17 molecules from article PMC11721942 (Journal of Enzyme Inhibition and Medicinal Chemistry, 2023).

SMILES strings stand for the structures. Counter-ions that a name gives are not always drawn. Like-named read-outs stand apart in the source and are kept apart here. Some results are limits rather than exact numbers.

One data set has as its system A549-ACE2 cells. The data set can be described thus: Cell toxicity assay. Format: cell-based, human.
In data set [1] the test system is SARS-CoV-2. Particulars: Vero E6 cells; cited from earlier work.
The test system of another data set is α-glucosidase (yeast). Conditions: cited from earlier work.
A further data set has as its target yeast α-glucosidase (Saccharomyces cerevisiae, UniProt P53341). Format: biochemical.
Data set [2] deals with ER glucosidase II (rat liver). Conditions: read-out: Inhibitory activity IC50; cited from earlier work.
Another data set has as its target T1, human α-galactosidase A (Homo sapiens, UniProt P06280).
T1 sequence (P06280 32-429): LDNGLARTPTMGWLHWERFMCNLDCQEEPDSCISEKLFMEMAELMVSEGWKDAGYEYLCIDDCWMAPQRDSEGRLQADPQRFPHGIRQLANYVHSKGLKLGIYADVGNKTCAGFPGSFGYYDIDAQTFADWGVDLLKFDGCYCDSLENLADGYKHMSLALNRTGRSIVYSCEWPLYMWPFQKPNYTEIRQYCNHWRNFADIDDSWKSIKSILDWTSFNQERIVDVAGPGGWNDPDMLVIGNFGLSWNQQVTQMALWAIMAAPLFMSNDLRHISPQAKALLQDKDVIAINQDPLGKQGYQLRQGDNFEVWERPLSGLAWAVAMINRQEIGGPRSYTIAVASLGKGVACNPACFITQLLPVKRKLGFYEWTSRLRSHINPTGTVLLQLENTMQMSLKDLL
It is filed as biochemical.

In data set [3] the test system is influenza haemagglutinin folding process in ER. Conditions: cited from earlier work.
The target in a further data set is α-glucosidase in rice. Conditions: cited from earlier work.
A further data set relates to severe COVID-19. Conditions: severe COVID-19 patients; cited from earlier work.
Data set [4] deals with SARS-CoV-2. Conditions: A549-ACE2 cells; cited from earlier work.

Sequence of yeast α-glucosidase (P53341 whole entry): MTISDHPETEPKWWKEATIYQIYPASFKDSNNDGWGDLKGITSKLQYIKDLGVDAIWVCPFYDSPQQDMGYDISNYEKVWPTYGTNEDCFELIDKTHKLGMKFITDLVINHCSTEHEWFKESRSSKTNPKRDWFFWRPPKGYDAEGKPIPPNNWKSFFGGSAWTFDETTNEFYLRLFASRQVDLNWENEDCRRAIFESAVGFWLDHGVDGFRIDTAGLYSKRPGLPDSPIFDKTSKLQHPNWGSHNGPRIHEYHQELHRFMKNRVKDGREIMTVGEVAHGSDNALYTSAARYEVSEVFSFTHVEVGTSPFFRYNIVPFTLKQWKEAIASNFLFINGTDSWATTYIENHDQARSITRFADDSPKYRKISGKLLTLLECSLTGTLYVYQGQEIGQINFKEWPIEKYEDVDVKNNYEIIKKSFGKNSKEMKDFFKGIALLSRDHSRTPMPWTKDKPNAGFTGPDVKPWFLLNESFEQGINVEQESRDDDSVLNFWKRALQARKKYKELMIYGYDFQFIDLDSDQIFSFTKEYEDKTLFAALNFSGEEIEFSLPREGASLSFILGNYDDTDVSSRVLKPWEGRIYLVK

With `CC/C(=C(\c1ccccc1)c1ccc(OCCN(C)C)cc1)c1ccccc1` [Compound 72, tamoxifen], in the data set with A549-ACE2 cells, the “cytotoxicity, concentration relative to antiviral EC90” value came out at 100 fold.
In the case of `CCCCN1C[C@H](O)[C@@H](O)[C@H](O)[C@H]1CO` [Compound 1, N-butyldeoxynojirimycin], the half-maximal effective concentration (EC50) with SARS-CoV-2 [1] is 41 ± 22 µM. Moreover, the “Inhibitory activity, % at 1 mM” value in the data set on α-glucosidase (yeast) (1 mM) was 12.7%. Moreover, the 50% inhibitory concentration (IC50) was over 500 µM at yeast α-glucosidase and 13 µM in data set [2].
On to `CCCCCCCCCN1C[C@H](O)[C@@H](O)[C@H](O)[C@H]1CO` [Compound 76, (2R,3R,4R,5S)-2-(hydroxymethyl)-1-nonylpiperidine-3,4,5-triol], for which the IC50 on yeast α-glucosidase is 70 µM.
On human α-galactosidase A, `CN1NC[C@@H](O)[C@@H](O)[C@H]1CO` [Compound 104, (4R,5S,6R)-6-(hydroxymethyl)-1-methylhexahydropyridazine-4,5-diol hydrochloride] displayed a half-inhibitory concentration (IC50) of over 100 µM.
For `CCCC(=O)O[C@H]1CN2CC[C@H](O)[C@@H]2[C@@H](O)[C@@H]1O` [celgosivir], in the data set with SARS-CoV-2 [1], the half-maximal effective concentration (EC50) was 1 ± 0.2 µM.
Turning to `OC[C@H]1NC[C@H](O)[C@@H](O)[C@@H]1O` [Compound 2, deoxynojirimycin], the IC50 in [2] was 16 µM.
`CN1C[C@H](O)[C@@H](O)[C@H](O)[C@H]1CO` [Compound 75, (2R,3R,4R,5S)-2-(hydroxymethyl)-1-methylpiperidine-3,4,5-triol] registered an IC50 on yeast α-glucosidase of 572 µM.
`O[C@H]1[C@H]2[C@H](O)CCCN2C[C@H]1O` [Compound 3, swainsonine]: the “cytotoxicity at EC90 concentrations” value in the data set on A549-ACE2 cells is reported as “cytotoxicity at EC90 concentrations”.
For `OC[C@@H]1[C@@H](O)[C@H](O)[C@@H](O)CN1CCCCCOCC12CC3CC(CC(C3)C1)C2` [Compound 77, (2 R,3R,4R,5S)-1–(5-(adamantan-1-ylmethoxy)pentyl)-2-(hydroxymethyl)piperidine-3,4,5-triol], the “concentration at which inhibition occurred” value in [3] is reported as 200 µM. At yeast α-glucosidase, the IC50 turned out to be 67 µM.
At human α-galactosidase A, `OC[C@H]1NNC[C@@H](O)[C@H]1O` [Compound 40, (3 R,4S,5R)-3-(hydroxymethyl)hexahydropyridazine-4,5-diol hydrochloride] showed an IC50 of over 100 µM.
`CN1C[C@H](O)[C@@H](O)[C@@H](O)[C@H]1CO` [Compound 87, (2R,3S,4R,5S)-2-(hydroxymethyl)-1-methylpiperidine-3,4,5-triol] showed an IC50 at human α-galactosidase A of 5.1 µM.
In the case of `OCCN1C[C@H](O)[C@@H](O)[C@H](O)[C@H]1CO` [Compound 8, miglitol], the half-inhibitory concentration (IC50) on α-glucosidase (yeast) was over 1000 µM; on α-glucosidase (yeast) (read-out: Inhibitory activity IC50, ref 37), 9880 µM; at α-glucosidase (yeast) (read-out: Inhibitory activity IC50, ref 46), 41.3 µM; on yeast α-glucosidase it was over 500 µM; on α-glucosidase in rice, 0.05 µM.
Take `CCCCCCCCCN1CC[C@@H](O)[C@@H](O)[C@H]1CO` [Compound 94, (2R,3S,4R)-2-(hydroxymethyl)-1-nonylpiperidine-3,4-diol]: on human α-galactosidase A, the IC50 was over 100 µM.
`CCCCCCCCCN1C[C@H](O)[C@@H](O)[C@@H](O)[C@H]1CO` [Compound 89, (2R,3S,4R,5S)-2-(hydroxymethyl)-1-nonylpiperidine-3,4,5-triol] registered an IC50 against human α-galactosidase A of over 100 µM.
Consider `C[C@@H]1C[C@H]2[C@@H]3CCC4=CC(=O)C=C[C@]4(C)[C@@]3(F)[C@@H](O)C[C@]2(C)[C@@]1(O)C(=O)CO` [dexamethasone], for which, in the data set with severe COVID-19, the reduction of mortality is recorded as 30%.
On yeast α-glucosidase, `OC[C@@H]1[C@@H](O)[C@H](O)[C@@H](O)CN1CCCCCC12CC(C1)C2` [Compound 22, (2 R,3R,4R,5S)-1–(5-(Bicyclo[1.1.1]pentan-1-yl)pentyl)-3,4,5-trihydroxy-2-(hydroxymethyl)piperidin-1-ium chloride] had an IC50 of 218 µM.
`COCCCCCCCCCN1C[C@H](O)[C@@H](O)[C@H](O)[C@H]1CO` [UV-4]: the EC50 in the data set on SARS-CoV-2 [4] is 4 µM.
